Assays:
Experiment in all cases: relative viability (nuclei count vs DMSO), 5 days (fraction); higher = more cells survive
BEN = system: BEN
How it was run: (§1)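 A single step with final 0.05% Triton X-100, 1% formaldehyde and 1 ug/ml Hoechst fixed the cells and stained nuclei 5 days after treatment. Lung cancer cell lines in 1536-well plates had been treated by pin tool the day after seeding with one drug alone or a fixed anchor-drug dose plus five library-drug doses (not always all listed) in √10 steps, and nuclei were counted on 4× images. Relative viability is the ratio of nuclei in treated wells to nuclei in vehicle wells, taken as the median of duplicate plates.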

ChaGo-K-1 = system: ChaGo-K-1
How it was run: as §1

HCC-78 = system: HCC-78
How it was run: as §1

LC-2-ad = system: LC-2-ad
How it was run: as §1

LCLC-97TM1 = system: LCLC-97TM1
How it was run: as §1

LK-2 = system: LK-2
How it was run: as §1

LU99A = system: LU99A
How it was run: as §1

LXF-289 = system: LXF-289
How it was run: as §1

NCI-H1355 = system: NCI-H1355
How it was run: as §1

NCI-H1651 = system: NCI-H1651
How it was run: as §1

NCI-H1666 = system: NCI-H1666
How it was run: as §1

NCI-H1944 = system: NCI-H1944
How it was run: as §1

NCI-H1975 = system: NCI-H1975
How it was run: as §1

NCI-H2087 = system: NCI-H2087
How it was run: as §1

NCI-H358 = system: NCI-H358
How it was run: as §1

NCI-H596 = system: NCI-H596
How it was run: as §1

NCI-H650 = system: NCI-H650
How it was run: as §1

NCI-H661 = system: NCI-H661
How it was run: as §1

NCI-H838 = system: NCI-H838
How it was run: as §1

PC-3 [JPC-3] = system: PC-3 [JPC-3]
How it was run: as §1

SK-MES-1 = system: SK-MES-1
How it was run: as §1

`O=c1cc(-c2cccc3c2Sc2ccccc2S3)oc(N2CCOCC2)c1` + CS(=O)(=O)N1CCN(Cc2cc3nc(-c4cccc5[nH]ncc45)nc(N4CCOCC4)c3s2)CC1 [Pictilisib] (partner 1 µM) gave a relative viability (BEN; first compound 0.08 µM) of 0.533, a relative viability (BEN; first compound 0.253 µM) of 0.671 and a relative viability (BEN; first compound 0.8 µM) of 0.531. The relative viability (BEN; first compound 2.53 µM) was 0.591, the relative viability (BEN; first compound 8 µM) was 0.686 and the relative viability (ChaGo-K-1; first compound 0.08 µM) was 0.649. It also gave a relative viability (ChaGo-K-1; first compound 0.253 µM) of 0.624, a relative viability (ChaGo-K-1; first compound 0.8 µM) of 0.777 and a relative viability (ChaGo-K-1; first compound 8 µM) of 1.12. It also gave a relative viability (HCC-78; first compound 0.08 µM) of 0.182, a relative viability (HCC-78; first compound 0.253 µM) of 0.199 and a relative viability (HCC-78; first compound 0.8 µM) of 0.207. It also gave a relative viability (HCC-78; first compound 2.53 µM) of 0.196, a relative viability (HCC-78; first compound 8 µM) of 0.255 and a relative viability (LC-2-ad; first compound 0.08 µM) of 0.472. For the same molecule, the relative viability (LC-2-ad; first compound 0.253 µM) was 0.545, the relative viability (LC-2-ad; first compound 0.8 µM) was 0.465 and the relative viability (LC-2-ad; first compound 2.53 µM) was 0.432. For the same molecule, the relative viability (LC-2-ad; first compound 8 µM) was 0.425, the relative viability (LCLC-97TM1; first compound 0.08 µM) was 0.166 and the relative viability (LCLC-97TM1; first compound 0.253 µM) was 0.174. For the same molecule, the relative viability (LCLC-97TM1; first compound 0.8 µM) was 0.208, the relative viability (LCLC-97TM1; first compound 2.53 µM) was 0.158 and the relative viability (LCLC-97TM1; first compound 8 µM) was 0.184. For the same molecule, the relative viability (LK-2; first compound 0.08 µM) was 0.608, the relative viability (LK-2; first compound 0.253 µM) was 0.51 and the relative viability (LK-2; first compound 0.8 µM) was 0.708. For the same molecule, the relative viability (LK-2; first compound 2.53 µM) was 0.503, the relative viability (LK-2; first compound 8 µM) was 0.725 and the relative viability (LU99A; first compound 0.08 µM) was 0.294. The relative viability (LU99A; first compound 0.253 µM) was 0.341, the relative viability (LU99A; first compound 0.8 µM) was 0.378 and the relative viability (LU99A; first compound 2.53 µM) was 0.332. For the same molecule, the relative viability (LU99A; first compound 8 µM) was 0.418, the relative viability (LXF-289; first compound 0.08 µM) was 0.777 and the relative viability (LXF-289; first compound 0.253 µM) was 0.791. For the same molecule, the relative viability (LXF-289; first compound 0.8 µM) was 0.896, the relative viability (LXF-289; first compound 2.53 µM) was 0.747 and the relative viability (LXF-289; first compound 8 µM) was 0.849. The relative viability (NCI-H1355; first compound 0.08 µM) was 0.457, the relative viability (NCI-H1355; first compound 0.253 µM) was 0.456 and the relative viability (NCI-H1355; first compound 0.8 µM) was 0.362. For the same molecule, the relative viability (NCI-H1355; first compound 2.53 µM) was 0.405, the relative viability (NCI-H1355; first compound 8 µM) was 0.344 and the relative viability (NCI-H1651; first compound 0.08 µM) was 0.512. The relative viability (NCI-H1651; first compound 0.253 µM) was 0.857, the relative viability (NCI-H1651; first compound 0.8 µM) was 0.546 and the relative viability (NCI-H1651; first compound 2.53 µM) was 0.59. It also gave a relative viability (NCI-H1651; first compound 8 µM) of 0.509, a relative viability (NCI-H1666; first compound 0.08 µM) of 0.404 and a relative viability (NCI-H1666; first compound 0.253 µM) of 0.416. For the same molecule, the relative viability (NCI-H1666; first compound 0.8 µM) was 0.323, the relative viability (NCI-H1666; first compound 2.53 µM) was 0.411 and the relative viability (NCI-H1666; first compound 8 µM) was 0.396. For the same molecule, the relative viability (NCI-H1944; first compound 0.08 µM) was 0.324, the relative viability (NCI-H1944; first compound 0.253 µM) was 0.352 and the relative viability (NCI-H1944; first compound 0.8 µM) was 0.29. For the same molecule, the relative viability (NCI-H1944; first compound 8 µM) was 0.346, the relative viability (NCI-H1975; first compound 0.08 µM) was 0.276 and the relative viability (NCI-H1975; first compound 0.253 µM) was 0.311. The relative viability (NCI-H1975; first compound 0.8 µM) was 0.236, the relative viability (NCI-H1975; first compound 2.53 µM) was 0.272 and the relative viability (NCI-H1975; first compound 8 µM) was 0.269. It also gave a relative viability (NCI-H2087; first compound 0.08 µM) of 0.954, a relative viability (NCI-H2087; first compound 0.253 µM) of 1.15 and a relative viability (NCI-H2087; first compound 0.8 µM) of 0.931. The relative viability (NCI-H2087; first compound 2.53 µM) was 0.87, the relative viability (NCI-H2087; first compound 8 µM) was 0.973 and the relative viability (NCI-H358; first compound 0.08 µM) was 0.311. The relative viability (NCI-H358; first compound 0.253 µM) was 0.328, the relative viability (NCI-H358; first compound 0.8 µM) was 0.351 and the relative viability (NCI-H358; first compound 2.53 µM) was 0.269. The relative viability (NCI-H358; first compound 8 µM) was 0.33, the relative viability (NCI-H596; first compound 0.08 µM) was 0.34 and the relative viability (NCI-H596; first compound 0.253 µM) was 0.419. For the same molecule, the relative viability (NCI-H596; first compound 0.8 µM) was 0.357, the relative viability (NCI-H596; first compound 2.53 µM) was 0.371 and the relative viability (NCI-H596; first compound 8 µM) was 0.403. For the same molecule, the relative viability (NCI-H650; first compound 0.08 µM) was 0.807, the relative viability (NCI-H650; first compound 0.253 µM) was 0.873 and the relative viability (NCI-H650; first compound 0.8 µM) was 0.741. For the same molecule, the relative viability (NCI-H650; first compound 2.53 µM) was 0.806, the relative viability (NCI-H650; first compound 8 µM) was 0.767 and the relative viability (NCI-H661; first compound 0.08 µM) was 0.352. The relative viability (NCI-H661; first compound 0.253 µM) was 0.394, the relative viability (NCI-H661; first compound 0.8 µM) was 0.404 and the relative viability (NCI-H661; first compound 2.53 µM) was 0.35. It also gave a relative viability (NCI-H661; first compound 8 µM) of 0.446, a relative viability (NCI-H838; first compound 0.08 µM) of 0.415 and a relative viability (NCI-H838; first compound 0.253 µM) of 0.643. It also gave a relative viability (NCI-H838; first compound 0.8 µM) of 0.372, a relative viability (NCI-H838; first compound 2.53 µM) of 0.426 and a relative viability (NCI-H838; first compound 8 µM) of 0.408. The relative viability (PC-3 [JPC-3]; first compound 0.08 µM) was 0.694, the relative viability (PC-3 [JPC-3]; first compound 0.253 µM) was 0.761 and the relative viability (PC-3 [JPC-3]; first compound 0.8 µM) was 0.644. It also gave a relative viability (PC-3 [JPC-3]; first compound 2.53 µM) of 0.662, a relative viability (PC-3 [JPC-3]; first compound 8 µM) of 0.863 and a relative viability (SK-MES-1; first compound 0.08 µM) of 0.373. The relative viability (SK-MES-1; first compound 0.253 µM) was 0.396, the relative viability (SK-MES-1; first compound 0.8 µM) was 0.338 and the relative viability (SK-MES-1; first compound 2.53 µM) was 0.407. The relative viability (SK-MES-1; first compound 8 µM) was 0.474.

From the supplement of paper PMC10307832
